Where two headings read alike, the source gives them in different places.
Key:
[1] = molecular target: T1, human M1 (Homo sapiens, UniProt P11229); assay: Calcium mobilization assay, human M1 (agonist and PAM modes); type: cell-based; settings: for hM1 PAM AChmax (%) / hM1 Agonist AChmax (%): % ACh max
T1 sequence (P11229 1-460): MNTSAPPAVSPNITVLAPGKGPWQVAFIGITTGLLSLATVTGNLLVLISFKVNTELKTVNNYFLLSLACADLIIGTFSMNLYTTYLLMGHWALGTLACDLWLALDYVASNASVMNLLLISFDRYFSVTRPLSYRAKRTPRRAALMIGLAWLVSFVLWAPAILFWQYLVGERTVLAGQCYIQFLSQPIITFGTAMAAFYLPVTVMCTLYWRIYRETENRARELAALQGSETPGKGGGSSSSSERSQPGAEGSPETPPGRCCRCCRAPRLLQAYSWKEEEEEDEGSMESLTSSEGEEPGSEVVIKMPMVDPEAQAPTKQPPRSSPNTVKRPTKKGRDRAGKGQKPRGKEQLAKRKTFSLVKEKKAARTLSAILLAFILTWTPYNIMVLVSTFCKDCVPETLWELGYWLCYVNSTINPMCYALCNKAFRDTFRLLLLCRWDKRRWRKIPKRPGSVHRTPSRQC

[2] = Rat brain homogenate binding; type: in vitro ADME; settings: brain homogenate (1:3 brain:DPBS, w/w), pH 7.4, read-out: fu,brain (r)
Experimental: Plasma protein binding and Brain homogenate binding: Determination of fraction unbound (f u) in plasma was conducted in vitro via equilibrium dialysis using HTDialysis (HTD) membrane plates. The top half of the plate was filled with 100 uL of Dubelco’s Phosphate Buffered Saline, pH 7.4 (DPBS). Compounds were diluted into plasma from each species (5 µM final concentration), which was aliquoted in triplicate to the ‘bottom half’ of the prepared HTD plate wells. The HTD plate was sealed and incubated for 6 hours at 37 °C. Following incubation, each well (both top and bottom halves) were transferred (20 µL) to the corresponding wells of a 96-shallow-well (V-bottom) plate. The daughter plates were then matrix-matched (DPBS side wells received equal volume of plasma, and plasma side wells received equal volume of DPBS), and extraction solution (120 µL; acetonitrile containing 50 nM carbamazepine as IS) was added to all wells of both daughter plates to precipitate protein and extract test article. The plates were then sealed and centrifuged (3500 rcf) for 10 minutes at ambient temperature. […]
The unbound fraction (f u) was calculated following the equation below, and mean values for each species were calculated from 3 replicates.
A similar approach was used to determine the degree of brain homogenate binding, which employed the same methodology and procedure with the following modifications: 1) a final compound concentration of 1 μM was used, 2) naïve rat brains were homogenized in DPBS (1:3 composition of brain: DPBS, w/w) using a Mini-Bead Beater™ machine in order to obtain brain homogenate, which was then treated in the same manner as the plasma samples in the previously described plasma protein binding assay. Fraction unbound for both plasma and brain samples was determined using Equation 4. […]
The diluted fraction unbound (fu2) in brain was calculated in the same manner by using brain homogenate rather than plasma. Undiluted fraction unbound for the brain was calculated using […]

[3] = IV/PO pharmacokinetics, rat; type: in vivo; settings: rat (SD), dose iv/po 1/10 mg/kg; for clearance / Vd / half-life: Sprague-Dawley, plasma, 1 mg/kg; for clearance: read-out: CLp; for Vd: read-out: Vss; for half-life: read-out: elimination t1/2 (converted)
Experimental: We next conducted multispecies IV/PO PK in parallel as a potential discerning data set. […] With a strong desire to employ dog as the nonrodent safety species, the challenge to address the low %F in dog was enough to triage PAM 12 and focus on the advancement of 11 (Table 3). […]
Pharmacokinetic profiles in rats following oral single escalating doses Single escalating oral dosing in Sprague-Dawley rats was performed at Frontage Laboratories according to their non-GLP Standard Operating Procedure and IACUC protocols. In short, compounds were formulated in 10% Tween 80 in water and dosed at 10 mg/kg. At different times, arterial blood was collected from a femoral artery catheter, and compound concentration was determined in plasma by LC-MS/MS following their non-GLP protocol. PK parameters were determined using Phoenix WinNonlin software (version 6.3). […]

[4] = PAM mode, read-out: hM1 PAM EC50
[5] = agonist mode, read-out: human M1 agonism EC50
[6] = agonist mode, read-out: hM1 Agonist EC50
[7] = hM1 PAM EC50, PAM mode, read-out: hM1 PAM pEC50 (converted)

| SMILES | hM1 PAM AChmax (%) ([1]; PAM mode) | EC50 [1, 4] | hM1 Agonist AChmax (%) ([1]; agonist mode) | EC50 [1, 5] | fraction unbound at 6 h, 1 µM [2] | EC50 [1, 6] | EC50 [1, 7] | clearance [3] | Vd [3] | half-life [3] | F (%) po [3] |
| --- | --- | --- | --- | --- | --- | --- | --- | --- | --- | --- | --- |
| Cn1ccc2nc(C(=O)NC3CCOCC3)cc(Cc3ccc(-c4cc[nH]n4)cc3)c21 [compound 24] | 73% | 0.144 µM | 36% | 2.1 µM | 0.025 | – | – | – | – | – | – |
| Cn1ccc(-c2ccc(Cc3cc(C(=O)NC4CCOCC4)nc4ccsc34)cc2)n1 [compound 12] | 73% | 0.149 µM | 38% | 3.1 µM | 0.011 | 3.06 µM | 0.132 µM | 1.98 L/h/kg | 8.2 L/kg | 5.3 h | 100% |
| Cn1ccc(-c2ccc(Cc3cc(C(=O)NC4CCOCC4)nc4ccn(C)c34)cc2)n1 [compound 11] | 80% | 0.228 µM | 24% | – | 0.038 | > 10 µM | 0.166 µM | 1.56 L/h/kg | 3.2 L/kg | 6.1 h | 66% |
